Like-named read-outs stand apart in the source and are kept apart here.
How the values were obtained:
[1] = tested on: KM12; assay: NCI SRB cytotoxicity, colon KM12; format: cell-based; conditions: Homo sapiens, 48 h exposure
Description: (§1) The pyrazolochalcones (7e, 8e, 10e, 11e, 12e, 13e and 8f) have been tested against fifty nine human tumor cell lines derived from nine cancer types (leukemia, non-small cell lung cancer, colon cancer, CNS cancer, melanoma, ovarian cancer, renal cancer, prostate cancer and breast cancer) as per the NCI protocol. For each compound, dose response curves for individual cell lines have been measured at a minimum of five concentrations at 10 fold dilutions. A protocol of 48 h continuous drug exposure has been used, and a sulforhodamine B (SRB) protein assay has been used to estimate cell viability or growth. The concentration for 50% cell growth inhibition (GI50), 50% cell death (LC50, 50% growth) and total cell growth inhibition (TGI, 0% growth) values were tabulated (Table-1). DMSO was used as control to calculate the values of GI50, LC50 and TGI. The compounds 7e, 8e, 10e, 11e, 12e, 13e and 8f has been evaluated for their in vitro cytotoxicity in […] cell lines from nine human cancer types of leukemia (K-562, SR), non-small cell lung (Hop-62, NCI-H226, NCI-H522), colon (HCT-116, HCT-15, HCC-2998), CNS (SF-539), melanoma (SK-MEL-5, UACC-62, M14), ovarian (IGROV1), renal (A498), prostate (PC3) and breast (BT-549, MDA-MB-435, HS578T) origin. The results are expressed as percent of cell growth determined relative to that of untreated control cells (Table 2).

[2] = tested on: IGROV1; assay: NCI SRB cytotoxicity, ovarian IGROV1; format: cell-based; conditions: Homo sapiens, IGROV-1, 48 h exposure
Description: as §1

[3] = tested on: SW-620; assay: NCI SRB cytotoxicity, colon SW-620; format: cell-based; conditions: Homo sapiens, 48 h exposure
Description: as §1

[4] = tested on: SK-MEL-2; assay: NCI SRB cytotoxicity, melanoma SK-MEL-2; format: cell-based; conditions: Homo sapiens, 48 h exposure
Description: as §1

[5] = tested on: HL-60(TB); assay: NCI SRB cytotoxicity, leukemia HL-60(TB); format: cell-based; conditions: Homo sapiens, 48 h exposure
Description: as §1

[6] = tested on: MDA-MB-435; assay: NCI SRB cytotoxicity, breast panel MDA-MB-435; format: cell-based; conditions: Homo sapiens, 48 h exposure
Description: as §1

[7] = tested on: OVCAR-5; assay: NCI SRB cytotoxicity, ovarian OVCAR-5; format: cell-based; conditions: Homo sapiens, 48 h exposure
Description: as §1

[8] = tested on: MDA-MB-435; assay: NCI SRB cytotoxicity, melanoma MDA-MB-435; format: cell-based; conditions: Homo sapiens, Melanoma panel MDA-MB-435, 48 h exposure
Description: as §1

[9] = tested on: OVCAR-4; assay: NCI SRB cytotoxicity, ovarian OVCAR-4; format: cell-based; conditions: Homo sapiens, 48 h exposure
Description: as §1

[10] = tested on: OVCAR-8; assay: NCI SRB cytotoxicity, ovarian OVCAR-8; format: cell-based; conditions: Homo sapiens, 48 h exposure
Description: as §1

[11] = tested on: HT29; assay: NCI SRB cytotoxicity, colon HT29; format: cell-based; conditions: Homo sapiens, HT-29, 48 h exposure
Description: as §1

[12] = tested on: BT-549; assay: NCI SRB cytotoxicity, breast BT-549; format: cell-based; conditions: Homo sapiens, 48 h exposure
Description: as §1

[13] = tested on: OVCAR-3; assay: NCI SRB cytotoxicity, ovarian OVCAR-3; format: cell-based; conditions: Homo sapiens, 48 h exposure
Description: as §1

[14] = tested on: NCI-H522; assay: NCI SRB cytotoxicity, non-small cell lung NCI-H522; format: cell-based; conditions: Homo sapiens, 48 h exposure
Description: as §1

[15] = tested on: Prostate; assay: NCI SRB cytotoxicity, prostate panel average; format: cell-based, human; conditions: average of cell lines; for GI50 / CC50: Homo sapiens; for GI50: read-out: Log10 GI50 (concentration in mol/L causing 50% growth inhibition) (converted); for CC50: read-out: Log10 LC50 (concentration in mol/L causing 50% cell death) (converted)
Description: as §1
(§2) Each cancer type represents the average of six to eight different cancer cell lines.

[16] = tested on: Breast; assay: NCI SRB cytotoxicity, breast panel average; format: cell-based, human; conditions: average of cell lines; for GI50 / CC50: Homo sapiens; for GI50: read-out: Log10 GI50 (concentration in mol/L causing 50% growth inhibition) (converted); for CC50: read-out: Log10 LC50 (concentration in mol/L causing 50% cell death) (converted)
Description: as §1, §2

[17] = tested on: 786-0; assay: NCI SRB cytotoxicity, renal 786-0; format: cell-based; conditions: Homo sapiens, 48 h exposure
Description: as §1

[18] = tested on: human tumor cell lines; assay: NCI SRB cytotoxicity, all fifty nine human tumor cell lines; format: cell-based; design: Log10 TGI mean graph midpoint (MG_MID): unit not given here; conditions: for GI50: Homo sapiens; for cytotoxicity: against cancer cell lines, in words; for LC50: read-out: Log10 LC50 mean graph midpoint (MG_MID) (converted)
Description: as §1
The mean graph midpoint values of Log10 TGI and Log10 LC50 as well as Log10 GI50 for compounds 7e, 8e, 10e, 11e, 12e, 13e and 8f is listed in Table-3. […] The mean graph mid points of Log10 TGI and Log10, LC50 have shown similar pattern to the log10 GI50 mean graph mid points.

[19] = tested on: COLO-205; assay: NCI SRB cytotoxicity, colon COLO-205; format: cell-based; conditions: Homo sapiens, 48 h exposure
Description: as §1

[20] = tested on: HCT-116; assay: NCI SRB cytotoxicity, colon HCT-116; format: cell-based; conditions: Homo sapiens, 48 h exposure
Description: as §1

[21] = tested on: HCT-15; assay: NCI SRB cytotoxicity, colon HCT-15; format: cell-based; conditions: Homo sapiens, 48 h exposure
Description: as §1

[22] = tested on: K-562; assay: NCI SRB cytotoxicity, leukemia K-562; format: cell-based; conditions: Homo sapiens, K562, 48 h exposure
Description: as §1

[23] = tested on: RPMI-8226; assay: NCI SRB cytotoxicity, leukemia RPMI-8226; format: cell-based; conditions: Homo sapiens, 48 h exposure
Description: as §1

[24] = tested on: M14; assay: NCI SRB cytotoxicity, melanoma M14; format: cell-based; conditions: Homo sapiens, 48 h exposure
Description: as §1

[25] = tested on: UACC-257; assay: NCI SRB cytotoxicity, melanoma UACC-257; format: cell-based; conditions: Homo sapiens, 48 h exposure
Description: as §1

[26] = tested on: Renal; assay: NCI SRB cytotoxicity, renal panel average; format: cell-based, human; conditions: average of cell lines; for GI50 / CC50: Homo sapiens; for GI50: read-out: Log10 GI50 (concentration in mol/L causing 50% growth inhibition) (converted); for CC50: read-out: Log10 LC50 (concentration in mol/L causing 50% cell death) (converted)
Description: as §1, §2

[27] = tested on: NCI-H23; assay: NCI SRB cytotoxicity, non-small cell lung NCI-H23; format: cell-based; conditions: Homo sapiens, 48 h exposure
Description: as §1

[28] = tested on: NCI-H226; assay: NCI SRB cytotoxicity, non-small cell lung NCI-H226; format: cell-based; conditions: Homo sapiens, 48 h exposure
Description: as §1

[29] = tested on: SN12C; assay: NCI SRB cytotoxicity, renal SN12C; format: cell-based; conditions: Homo sapiens, 48 h exposure
Description: as §1

[30] = tested on: HOP-62; assay: NCI SRB cytotoxicity, non-small cell lung HOP-62; format: cell-based; conditions: Homo sapiens, 48 h exposure
Description: as §1

[31] = tested on: MDA-MB-231/ATCC; assay: NCI SRB cytotoxicity, breast MDA-MB-231/ATCC; format: cell-based; conditions: Homo sapiens, 48 h exposure
Description: as §1

[32] = tested on: CAKI-1; assay: NCI SRB cytotoxicity, renal CAKI-1; format: cell-based; conditions: Homo sapiens, 48 h exposure
Description: as §1

[33] = tested on: HS 578T; assay: NCI SRB cytotoxicity, breast HS 578T; format: cell-based; conditions: Homo sapiens, 48 h exposure
Description: as §1

[34] = tested on: SK-MEL-5; assay: NCI SRB cytotoxicity, melanoma SK-MEL-5; format: cell-based; conditions: Homo sapiens, 48 h exposure
Description: as §1

[35] = tested on: MALME-3M; assay: NCI SRB cytotoxicity, melanoma MALME-3M; format: cell-based; conditions: Homo sapiens, 48 h exposure
Description: as §1

[36] = across fifty nine cell lines in nine cell panels, read-out: GI50 value range
[37] = against human tumor cell lines, read-out: Log10 GI50 mean graph midpoint (MG_MID) (converted)

Compound: COc1cc(-c2cc(/C=C/C(=O)c3ccc(Cl)c(Cl)c3)[nH]n2)cc(OC)c1OC [12e, (E)-1-(3,4-dichlorophenyl)-3-(3-(3,4,5-trimethoxyphenyl)-1H-pyrazol-5-yl)prop-2-en-1-one]
- GI50 [1]: 3370 nM
- GI50 [2]: 24000 nM
- GI50 [3]: 8630 nM
- GI50 [4]: 13900 nM
- GI50 [5]: 7180 nM
- GI50 [6]: 1980 nM
- GI50 [7]: 20500 nM
- GI50 [8]: 5650 nM
- GI50 [9]: 10800 nM
- GI50 [10]: 6300 nM
- GI50 [11]: 1150 nM
- GI50 [12]: 8400 nM
- GI50 [13]: 6990 nM
- GI50 [14]: 1330 nM
- GI50 [15]: 5890 nM
- CC50 [15]: 100000 nM
- Log10 TGI (concentration in mol/L causing total growth inhibition (0% growth)) [15]: −4.00 mol/L
- GI50 [16]: 4470 nM
- CC50 [16]: 100000 nM
- Log10 TGI (concentration in mol/L causing total growth inhibition (0% growth)) [16]: −4.41 mol/L
- GI50 [17]: 10100 nM
- GI50 [18, 36]: 180 to 29200 nM
- GI50 [18, 37]: 6610 nM
- cytotoxicity [18]: significant cytotoxicity
- Log10 TGI mean graph midpoint (MG_MID) ([18]; against human tumor cell lines): −4.35
- LC50 ([18]; against human tumor cell lines): 89100 nM
- GI50 [19]: 1260 nM
- GI50 [20]: 2950 nM
- GI50 [21]: 4290 nM
- GI50 [22]: 4960 nM
- GI50 [23]: 530 nM
- GI50 [24]: 18200 nM
- GI50 [25]: 16300 nM
- GI50 [26]: 8910 nM
- CC50 [26]: 93300 nM
- Log10 TGI (concentration in mol/L causing total growth inhibition (0% growth)) [26]: −4.22 mol/L
- GI50 [27]: 23400 nM
- GI50 [28]: 18600 nM
- GI50 [29]: 13700 nM
- GI50 [30]: 1720 nM
- GI50 [31]: 8650 nM
- GI50 [32]: 16900 nM
- GI50 [33]: 16600 nM
- GI50 [34]: 13400 nM
- GI50 [35]: 29200 nM

Compound: COc1ccc(C(=O)/C=C/c2cc(-c3cc(OC)c(OC)c(OC)c3)n[nH]2)cc1OC [8e, (E)-1-(3,4-dimethoxyphenyl)-3-(3-(3,4,5-trimethoxyphenyl)-1H-pyrazol-5-yl)prop-2-en-1-one]
- GI50 [1]: 1070 nM
- GI50 [2]: 1800 nM
- GI50 [3]: 1370 nM
- GI50 [4]: 1850 nM
- GI50 [5]: 1440 nM
- GI50 [6]: 750 nM
- GI50 [7]: 1590 nM
- GI50 [8]: 1340 nM
- GI50 [9]: 2690 nM
- GI50 [10]: 1320 nM
- GI50 [11]: 1620 nM
- GI50 [12]: 1440 nM
- GI50 [13]: 1680 nM
- GI50 [14]: 180 nM
- GI50 [15]: 871 nM
- CC50 [15]: 5250 nM
- Log10 TGI (concentration in mol/L causing total growth inhibition (0% growth)) [15]: −5.64 mol/L
- GI50 [16]: 1230 nM
- CC50 [16]: 15100 nM
- Log10 TGI (concentration in mol/L causing total growth inhibition (0% growth)) [16]: −5.47 mol/L
- GI50 [17]: 1400 nM
- GI50 [18, 36]: 180 to 29200 nM
- GI50 [18, 37]: 1350 nM
- cytotoxicity [18]: significant cytotoxicity
- Log10 TGI mean graph midpoint (MG_MID) ([18]; against human tumor cell lines): −5.47
- LC50 ([18]; against human tumor cell lines): 10500 nM
- GI50 [19]: 1740 nM
- GI50 [20]: 880 nM
- GI50 [21]: 1270 nM
- GI50 [22]: 1910 nM
- GI50 [23]: 240 nM
- GI50 [24]: 1840 nM
- GI50 [25]: 1490 nM
- GI50 [26]: 1510 nM
- CC50 [26]: 6610 nM
- Log10 TGI (concentration in mol/L causing total growth inhibition (0% growth)) [26]: −5.51 mol/L
- GI50 [27]: 2150 nM
- GI50 [28]: 1690 nM
- GI50 [29]: 1540 nM
- GI50 [30]: 1440 nM
- GI50 [31]: 1480 nM
- GI50 [32]: 2200 nM
- GI50 [33]: 2570 nM
- GI50 [34]: 1650 nM
- GI50 [35]: 1990 nM

Reference: US9604933B2, “Pyrazolochalcones as potential anticancer agents” (COUNCIL OF SCIENTIFIC AND INDUSTRIAL RESEARCH, priority 2013, dated 2017)
